PubChem BioAssay (NCI)
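1) Cells in 96-well plates. 2) Compound, 48 h, 5 concentrations. 3) Linear interpolation between surrounding doses. 4) Unreached endpoint = highest concentration. GI50: concentration for 50% inhibition of growth. Definition used: TGI = concentration required for complete inhibition of growth.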

Tests used:
Test in all cases: inhibition of tumour cell growth, NCI panel, 48 h
NCI-H23 lung = tested on: NCI-H23 lung
UACC-62 melanoma = tested on: UACC-62 melanoma
HL-60(TB) leukemia = tested on: HL-60(TB) leukemia
SNB-75 CNS = tested on: SNB-75 CNS
EKVX NSCLC = tested on: EKVX NSCLC
SK-MEL-28 melanoma = tested on: SK-MEL-28 melanoma
LOX IMVI melanoma = tested on: LOX IMVI melanoma
SK-MEL-2 melanoma = tested on: SK-MEL-2 melanoma
NCI-H226 lung = tested on: NCI-H226 lung
NCI/ADR-RES ovarian = tested on: NCI/ADR-RES ovarian

| SMILES | TGI (NCI-H23 lung) [µM] | TGI (UACC-62 melanoma) [µM] | TGI (HL-60(TB) leukemia) [µM] | TGI (SNB-75 CNS) [µM] | TGI (EKVX NSCLC) [µM] | TGI (SK-MEL-28 melanoma) [µM] | TGI (LOX IMVI melanoma) [µM] | TGI (SK-MEL-2 melanoma) [µM] | TGI (NCI-H226 lung) [µM] | TGI (NCI/ADR-RES ovarian) [µM] | GI50 (HL-60(TB) leukemia) [µM] |
| --- | --- | --- | --- | --- | --- | --- | --- | --- | --- | --- | --- |
| CCCC(C(=O)OC)C1N=C(NC#N)N(Cc2ccccc2)C1=O (stereo not drawn) | > 100 | > 100 | > 100 | 81.1 | > 100 | > 100 | > 100 | > 100 | – | – | – |
| O=C1N[C@H](C(=O)O)[C@@H](c2ccc(OCc3ccccc3)cc2)O1 | > 100 | > 100 | – | 28 | 89.1 | > 100 | – | > 100 | 55.7 | 65.3 | – |
| CC(C)C(CCOS(=O)(=O)O)CCC(C)[C@H]1[C@@H](O)C(O)C2[C@]3(O)C[C@@H](O)C4(O)C[C@@H](O)CC[C@]4(C)C3CC[C@@]21C (stereo partly drawn) | > 100 | > 100 | > 100 | – | > 100 | > 100 | > 100 | > 100 | > 100 | – | – |
| CC1CCc2c(sc3ncnc(N/N=C/c4ccc(Cl)cc4)c23)C1 (stereo not drawn) | > 100 | > 100 | 43.5 | > 100 | 81.6 | > 100 | 70.6 | > 100 | 44.4 | – | – |
| Cc1ccc(-c2cc(=O)c(=O)[nH][nH]2)cc1 | > 100 | > 100 | – | > 100 | > 100 | > 100 | > 100 | > 100 | > 100 | > 100 | – |
| CC(N)C(C)c1ccccc1 (stereo not drawn) | > 100 | > 100 | > 100 | > 100 | > 100 | > 100 | > 100 | > 100 | > 100 | – | – |
| COc1ccc(Nc2cc(=O)[nH]c(=O)[nH]2)cc1 | > 100 | – | > 100 | > 100 | > 100 | > 100 | > 100 | – | > 100 | > 100 | – |
| CCOC(=O)c1cc([N+](=O)[O-])c(Sc2ncnc3nc[nH]c23)c([N+](=O)[O-])c1 | 28.7 | 11.9 | 23.4 | – | 15.4 | 29.2 | 17.9 | 24.6 | 17.3 | 14.3 | – |
| O=C(Nc1ccc(F)cc1)c1cc2c(cc1Cl)Sc1nccn1S2(=O)=O | – | – | – | 46.9 | > 100 | > 100 | > 100 | > 100 | > 100 | > 100 | – |
| O=c1c2cc([N+](=O)[O-])ccc2n2n1CCCCC2 | > 100 | > 100 | > 100 | > 100 | > 100 | > 100 | > 100 | – | > 100 | > 100 | – |
| COc1ccc(CNc2nc3cc(C(F)(F)F)ccc3nc2C(=O)O)cc1 | 76.3 | 49.8 | – | > 100 | 78.6 | > 100 | 44.3 | 62.2 | > 100 | 58.1 | – |
| C=C(C)CCC(O)[C@](C)(O)[C@H]1[C@H](O)C[C@@]2(C)[C@@H]3CCc4c(cc(OC5OC(CO)C(O)C(O)C5O)c(O)c4C)C3(C)C(=O)C[C@]12C (stereo partly drawn) | > 100 | > 100 | – | > 100 | > 100 | > 100 | > 100 | > 100 | > 100 | > 100 | – |
| CC1CC(=O)Nc2ccccc2N1C(=O)C1CC1 (stereo not drawn) | > 100 | – | > 100 | – | > 100 | > 100 | > 100 | > 100 | > 100 | – | – |
| Cc1cccc(-c2nc(-c3cnccn3)n(Cc3ccccc3)n2)c1 | > 100 | > 100 | > 100 | 30.2 | – | > 100 | > 100 | – | – | > 100 | – |
| CC(=O)OCC1OC(O[C@H]2C=C[C@@H](C(=O)OCc3ccccc3)n3c(=O)n(-c4ccccc4)c(=O)n32)C(OC(C)=O)C(OC(C)=O)C1OC(C)=O (stereo partly drawn) | 9.02 | 3.18 | > 100 | 23.5 | 3.9 | 5.28 | – | 10.1 | 12.5 | > 100 | – |
| [O-][N+]1=C2CCC/C(=N/O)C2(O)C2CCCCC21N1CCOCC1 (stereo not drawn) | > 100 | > 100 | – | > 100 | > 100 | > 100 | > 100 | > 100 | > 100 | > 100 | – |
| COCCCNc1c2ccccc2nc2ccccc12 | 10.3 | 6.35 | 15.2 | – | 27.3 | 6.54 | 5.67 | 4.89 | – | 33.6 | – |
| COc1ccc(-c2cc(=O)c3cc(O)ccc3o2)c(OC)c1OC | > 100 | > 100 | 37.2 | 76.5 | > 100 | > 100 | 57.1 | > 100 | > 100 | – | – |

| SMILES | TGI (NCI-H23 lung) [µM] | TGI (UACC-62 melanoma) [µM] | TGI (HL-60(TB) leukemia) [µM] | TGI (SNB-75 CNS) [µM] | TGI (EKVX NSCLC) [µM] | TGI (SK-MEL-28 melanoma) [µM] | TGI (LOX IMVI melanoma) [µM] | TGI (SK-MEL-2 melanoma) [µM] | TGI (NCI-H226 lung) [µM] | TGI (NCI/ADR-RES ovarian) [µM] | GI50 (HL-60(TB) leukemia) [µM] |
| --- | --- | --- | --- | --- | --- | --- | --- | --- | --- | --- | --- |
| CC(C)CC1N=C(OCc2ccccc2)OC1=O (stereo not drawn) | > 100 | – | – | > 100 | > 100 | > 100 | > 100 | > 100 | > 100 | > 100 | – |
| CN(C)CC(C)(C)CN1c2ccccc2Sc2ccccc21 | 30.2 | 28.2 | – | 18 | 28.8 | 26.8 | 26.4 | 28.8 | 33.4 | 26.3 | – |
| CCOC(=O)CC1Nc2ccccc2C12CCc1c([nH]c3ccccc13)C2C(=O)OCC (stereo not drawn) | > 100 | > 100 | 53.8 | 4.72 | > 100 | > 100 | > 100 | > 100 | – | > 100 | – |
| O=C(O)c1ccc(Nc2cnc3cc(C(F)(F)F)ccc3n2)cc1 | > 100 | 53.6 | > 100 | > 100 | > 100 | > 100 | > 100 | – | > 100 | > 100 | – |
| Cn1c(=O)cc(Nc2ccc(N)cc2)[nH]c1=O | > 100 | > 100 | – | > 100 | > 100 | > 100 | > 100 | > 100 | > 100 | > 100 | – |
| CCCCCCc1cc2cc(C(=O)Nc3cccc(F)c3)c(=N)oc2cc1O | 5.06 | 7.04 | 5.33 | – | 6.44 | 9.51 | 3.41 | 5.44 | – | 7.54 | – |
| O=C(CC(C(=O)c1cccs1)c1ccc2c(c1)OCO2)c1ccccc1 (stereo not drawn) | > 100 | > 100 | > 100 | > 100 | – | > 100 | > 100 | > 100 | > 100 | > 100 | – |
| C/C(CCN(C)C)=N\OC(=O)c1ccccc1 | > 100 | > 100 | > 100 | > 100 | > 100 | > 100 | > 100 | > 100 | > 100 | – | – |
| N=c1oc2cc(O)ccc2cc1C(=O)Nc1cccc2ccccc12 | 12.9 | 14.3 | 10.7 | 13.9 | 14.6 | 34.4 | 18.4 | – | 16.6 | 4.43 | – |
| O=C1c2ccccc2C(=O)N1NC1=NCCN1 | > 100 | > 100 | > 100 | – | > 100 | > 100 | > 100 | > 100 | > 100 | > 100 | – |
| O=C1OC(c2ccccc2Br)=N/C1=C/c1ccccc1 | > 100 | > 100 | > 100 | > 100 | > 100 | > 100 | 38.8 | 41.7 | 77.9 | – | – |
| O[C@@]12Cc3c([nH]c4ccccc34)[C@@H]3Oc4c(-c5ccccc5)ccc5c4[C@@]31CCN(CC1CC1)[C@@H]2C5 | 3.55 | 3.32 | 4.48 | – | 4 | 3.24 | 3.52 | 3.3 | – | 6.58 | – |
| CCOc1cc2c(cc1O)C(=O)C[C@@H]1[C@@H]2CC[C@]2(C)[C@@H](O)CC[C@@H]12 | 43.7 | > 100 | – | – | > 100 | > 73.5 | > 100 | > 58.1 | 17 | 8.27 | – |
| CN(/N=C/C=N/N(C)C1=NCCN1)C1=NCCN1 | > 100 | > 100 | – | > 100 | > 100 | > 100 | > 100 | – | > 100 | > 100 | – |
| COC(=O)c1c2c(cc3c1CC1(C3)Cc3cc4c(c(C(=O)OC)c3C1)CCC4)CCC2 | > 100 | > 100 | > 100 | – | > 100 | – | > 100 | > 100 | > 100 | > 100 | – |
| CC(C)=CCc1cc(/C=C/C(=O)O)cc(CC=C(C)C)c1O | > 100 | > 100 | > 100 | – | > 100 | – | > 100 | > 100 | – | > 100 | – |
| O=C1CN(c2ccccc2)C(=O)CN1NCNN1CC(=O)N(c2ccccc2)CC1=O | > 100 | > 100 | > 100 | > 100 | > 100 | > 100 | – | – | – | – | – |
| Cc1cc(N=Cc2c(CO)cnc(C)c2O)c(N=Cc2c(CO)cnc(C)c2O)cc1C | > 100 | > 100 | > 100 | > 100 | > 100 | > 100 | > 100 | – | > 100 | > 100 | 0.0212 |
